Experimental data: patent US10233195B2, “Anti-fibrotic pyridinones” (InterMune, Inc., priority 2014, dated 2019)
pEC50: −log10 of the molar value.

Test system: TGF-b induced Endothelin-1 production
Assay: ET-1 assay: inhibitory effect on TGF-b induced endothelin-1 production
Assay type: cell-based
Conditions: Homo sapiens, Fibroblast; fibroblasts, stimulant (TGFb, serum, LPA etc), ET-1 in media by ELISA, 4-parameter fit
How it was run: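 Fibroblasts (primary human lung/dermal, HFL-1, 3T3) serum-starved 0-48 h, preincubated ~30 min with compound, then stimulated (TGFb, serum or LPA) for 16-48 h. Secreted ET-1 measured by ELISA; EC50 from 4-parameter logistic fit, with CC50 from ATPlite in the same wells.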

Row | SMILES | pEC50
1 | Cc1ccc(=S)n(-c2ccc(OC(C)C)cc2)c1 [Compound 334] | < 3.70
2 | COc1ccc(-c2ccc(=O)n(-c3cncnc3)c2)cc1 [Compound 311] | < 3.70
3 | CCOc1ccc(-n2cc(-c3cnn(C)c3)c(NCc3ccncc3)cc2=O)c(C)c1 [Compound 700] | 3.70 to 4.30
4 | Cc1cc(=O)n(-c2ccc(OC(F)(F)F)cc2)cc1-c1ccccc1 [Compound 164] | > 4.30
5 | CCOc1ccc(-n2cc(-c3cccc(F)c3)c(C)cc2=O)c(C)c1 [Compound 193] | 3.70 to 4.30
6 | CC(=O)Nc1cccc(-n2cc(Br)ccc2=O)c1 [Compound 271] | < 3.70
7 | COCCOc1cc(=O)n(-c2ccc(OC(F)(F)F)cc2)cc1-c1ccc(F)cc1 [Compound 96] | < 3.70
8 | Cc1cc(=O)n(-c2ccc(Cl)cc2C)cc1-c1ccccc1 [Compound 169] | 3.70 to 4.30
9 | Cn1cc(-c2cn(-c3ccc(OC(F)(F)F)cc3)c(=O)cc2N)cn1 [Compound 124] | < 3.70
10 | O=c1ccc(C(F)(F)F)cn1-c1cccc(F)c1 [Compound 274] | < 3.70
11 | COc1ccc(-n2cc(-c3ccc(S(N)(=O)=O)cc3)ccc2=O)cc1 [Compound 328] | < 3.70
12 | CC(=O)Nc1cccc(-n2cc(-c3ccc(F)cc3)c(C)cc2=O)c1 [Compound 172] | < 3.70
13 | O=c1ccc(-c2cccc(Cl)c2)cn1-c1cccc(F)c1 [Compound 320] | > 4.30
14 | CC(C)OC(=O)Nc1cc(=O)n(-c2ccc(OC(F)(F)F)cc2)cc1-c1cnn(C)c1 [Compound 139] | < 3.70
15 | O=c1ccc(-c2ccccc2)cn1-c1cccc(F)c1 [Compound 296] | < 3.70
16 | CC(C)n1cc(-c2ccc(=O)n(-c3ccccc3)c2)cn1 [Compound 388] | < 3.70
17 | C#Cc1ccc(=O)n(-c2ccccc2)c1 [Compound 287] | < 3.70
18 | O=c1ccc(-c2cn[nH]c2)cn1-c1ccc(F)cc1 [Compound 377] | 3.70 to 4.30
19 | O=C(Nc1cc(=O)n(-c2ccc(OC(F)(F)F)cc2)cc1-c1ccc(F)cc1)OCc1ccccc1 [Compound 103] | < 3.70
20 | CC(C)OC(=O)Nc1cc(=O)n(-c2ccc(OC(F)(F)F)cc2)cc1-c1ccc(F)cc1 [Compound 112] | < 3.70
21 | O=c1c2ncn(Cc3ccccc3)c2c(-c2ccc(F)cc2)cn1-c1ccc(OC(F)(F)F)cc1 [Compound 54] | < 3.70
22 | COCCOc1ccc(-n2cc(-c3cnn(C)c3)c(C)cc2=O)cc1 [Compound 25] | < 3.70

Row | SMILES | pEC50
23 | Cc1cc(=O)n(-c2ccc(OC(F)(F)F)cc2)cc1-c1cccc2c1N(C)C(=O)CO2 [Compound 427] | < 3.70
24 | O=c1cc(Oc2ccccc2)c(-c2ccc(F)cc2)cn1-c1ccc(OC(F)(F)F)cc1 [Compound 102] | < 3.70
25 | Cc1n[nH]c(C)c1-c1ccc(=O)n(-c2ccc(OC(C)C)cc2)c1 [Compound 382] | 3.70 to 4.30
26 | CN1CCC(Oc2cc(=O)n(-c3ccc(OC(F)(F)F)cc3)cc2-c2ccc(F)cc2)CC1 [Compound 95] | > 4.30
27 | Cn1cc(-c2cn(-c3ccc(OC(F)(F)F)cc3)c(=O)cc2C(F)(F)F)cn1 [Compound 240] | < 3.70
28 | Cc1cc(=O)n(-c2ccc(OC(F)(F)F)cc2)cc1C(F)(F)F [Compound 368] | < 3.70
29 | Cc1cc(=O)n(-c2ccc(OC(F)(F)F)cc2)cc1-c1cnsc1 [Compound 264] | < 3.70
30 | COc1cccc(-n2cc(-c3c(C)n[nH]c3C)ccc2=O)c1 [Compound 378] | 3.70 to 4.30
31 | Cc1cc(=O)n(-c2ccc(OC(F)(F)F)cc2)cc1-c1ccc2c(c1)oc(=O)n2CCO [Compound 558] | 3.70 to 4.30
32 | O=c1c(-c2ccc(F)cc2)c(-c2ccc(OC(F)(F)F)cc2)c1=O [Compound 666] | > 4.30
33 | Cn1cc(-c2cn(-c3ccc(Cl)cc3)c(=O)cc2Oc2ccccc2)cn1 [Compound 534] | > 4.30
34 | Cn1cc(-c2cnc(=O)n(-c3ccccc3)c2)cn1 [Compound 355] | < 3.70
35 | Cc1cc(=O)n(-c2cccc3c2OCO3)cc1-c1cnn(C)c1 [Compound 232] | < 3.70
36 | CC(=O)Nc1cc(=O)n(-c2ccc(OC(F)(F)F)cc2)cc1-c1ccc(F)cc1 [Compound 104] | < 3.70
37 | COCCOc1ccc(-n2cc(-c3cn[nH]c3)c(C)cc2=O)cc1 [Compound 24] | < 3.70
38 | O=c1c2c(c(-c3cn[nH]c3)cn1-c1ccc(OC(F)(F)F)cc1)CCCC2 [Compound 37] | 3.70 to 4.30
39 | Cc1cc(=O)n(-c2ccc3c(c2)OCCO3)cc1-c1ccc(F)cc1 [Compound 182] | < 3.70
40 | COc1ccc(-c2ccc(=O)n(-c3cccc(OC)c3)c2)cc1 [Compound 309] | 3.70 to 4.30
41 | O=c1c2nc[nH]c2c(-c2ccc(F)cc2)cn1-c1ccc(OC(F)(F)F)cc1 [Compound 56] | < 3.70
42 | Cc1cc(=O)n(-c2ccc(OC(F)(F)F)cc2)cc1-c1ccnn1C [Compound 247] | < 3.70
43 | O=c1ccc(C(F)(F)F)cn1-c1cncnc1 [Compound 279] | < 3.70
44 | O=c1ncc(-c2ccc(F)cc2)cn1-c1ccc(OC(F)(F)F)cc1 [Compound 357] | < 3.70

Row | SMILES | pEC50
45 | CCOc1ccc(CNc2cc(=O)n(-c3ccc(OC(F)(F)F)cc3)cc2-c2cnn(C)c2)c(F)c1 [Compound 528] | > 4.30
46 | Cc1cc(=O)n(-c2ccccc2C)cc1-c1ccc(F)cc1 [Compound 214] | 3.70 to 4.30
47 | CCOc1ccc(-n2cc(-c3cnn(C)c3)c(NCc3ccccn3)cc2=O)c(C)c1 [Compound 699] | 3.70 to 4.30
48 | CC(=O)c1ccc(=O)n(-c2ccccc2Cl)c1 [Compound 19] | 3.70 to 4.30
49 | Cc1nc2c(=O)n(-c3ccc(OC(F)(F)F)cc3)cc(-c3cnn(C)c3)c2n1C [Compound 674] | 3.70 to 4.30
50 | Cc1cc(=O)n(-c2cccc(OC(F)(F)F)c2)cc1-c1ccccc1 [Compound 166] | > 4.30
51 | O=c1ncc(-c2ccc(F)cc2)cn1-c1ccccc1 [Compound 356] | 3.70 to 4.30
52 | COCCOc1ccc(-n2cc(-c3ccccc3)c(C)cc2=O)cc1 [Compound 26] | > 4.30
53 | Cn1cc(-c2cn(-c3ccc(OC(F)(F)F)cc3)c(=O)cc2Cl)cn1 [Compound 122] | < 3.70
54 | O=c1ccc(-c2cccc(Cl)c2)cn1-c1ccc(Cl)cc1 [Compound 314] | > 4.30
55 | CCn1cnc2c(-c3cn[nH]c3)cn(-c3ccc(OC(F)(F)F)cc3)c(=O)c21 [Compound 669] | > 4.30
56 | CCOc1ccc(-c2c(-c3ccc(F)cc3)c(=O)c2=O)c(C)c1 [Compound 667] | > 4.30
57 | Cc1cc(=O)n(-c2ccc(OC(F)(F)F)cc2)cc1-c1cccc(Cl)c1 [Compound 191] | 3.70 to 4.30
58 | CCOc1ccc(-n2cc(-c3cnn(C)c3)c3c(c2=O)CCCC3)c(C)c1 [Compound 35] | > 4.30
59 | O=c1ccc(C(F)(F)F)cn1-c1ccc(NCCN2CCN(CCO)CC2)cc1Cl [Compound 709] | 3.70 to 4.30
60 | O=C(NCc1ccccc1)Nc1cc(=O)n(-c2ccc(OC(F)(F)F)cc2)cc1-c1ccc(F)cc1 [Compound 116] | < 3.70
61 | CCOc1ccc(-n2cc(-c3cnn(C)c3)c(NCc3ccc(F)cc3F)cc2=O)c(C)c1 [Compound 702] | > 4.30
62 | O=c1ccc(-c2cccc(Cl)c2)cn1-c1ccccc1F [Compound 324] | 3.70 to 4.30
63 | CCOc1ccc(-n2cc(-c3ccc4ocnc4c3)c(C)cc2=O)c(C)c1 [Compound 420] | 3.70 to 4.30
64 | Cn1cc(-c2cn(-c3ccc(OC(F)(F)F)cc3)c(=O)cc2Nc2ccccc2)cn1 [Compound 130] | < 3.70
65 | COCCOc1ccc(-n2cc(-c3cnn(C)c3)c(Oc3ccccc3)cc2=O)cc1 [Compound 540] | > 4.30
66 | O=c1ccc(-c2ccccc2)cn1-c1ccccc1Cl [Compound 302] | 3.70 to 4.30

Row | SMILES | pEC50
67 | Cc1cc(=O)n(-c2ccc(OC(F)(F)F)cc2)cc1-c1ccc2[nH]c(=O)oc2c1 [Compound 429] | < 3.70
68 | Cc1cc(=O)n(-c2ccc(Cl)cc2)cc1-c1ccc2scnc2c1 [Compound 421] | 3.70 to 4.30
69 | Cc1ccc2c(c1)CC(=O)N2c1ccc(OC(F)(F)F)cc1 [Compound 82] | < 3.70
70 | O=c1ccc(-c2ccccc2)cn1-c1ccncc1 [Compound 299] | < 3.70
71 | Cc1cc(=O)n(-c2ccccc2F)cc1-c1cnn(C)c1 [Compound 230] | < 3.70
72 | O=C1NC=CCN1c1ccccc1 [Compound 365] | < 3.70
73 | Cc1cc(=O)n(-c2ccccc2)cc1C [Compound 366] | < 3.70
74 | CC(=O)n1cc(-c2ccc(=O)n(-c3ccccc3)c2)cn1 [Compound 67] | < 3.70
75 | Cn1cc(-c2cn(-c3ccc(OC(F)(F)F)cc3)c(=O)c3c2ccn3CCO)cn1 [Compound 614] | > 4.30
76 | O=c1cc(OC2CCS(=O)(=O)CC2)c(-c2ccc(F)cc2)cn1-c1ccc(OC(F)(F)F)cc1 [Compound 99] | > 4.30
77 | N#Cc1cc(=O)n(-c2ccc(OC(F)(F)F)cc2)cc1-c1ccc(F)cc1 [Compound 401] | < 3.70
78 | CCn1ccc2c(-c3cn[nH]c3)cn(-c3ccc(OC(F)(F)F)cc3)c(=O)c21 [Compound 593] | > 4.30
79 | O=c1c2nccnc2c(-c2cnn(CCO)c2)cn1-c1ccc(OC(F)(F)F)cc1 [Compound 577] | 3.70 to 4.30
80 | O=c1ccc(C2CCC2)cn1-c1ccccc1 [Compound 65] | < 3.70
81 | Cn1cc(-c2cn(-c3ccc(Cl)cc3)c(=O)c3c2ccn3C)cn1 [Compound 599] | > 4.30
82 | CC(C)OCCn1ccc2c(-c3cn[nH]c3)cn(-c3ccc(OC(F)(F)F)cc3)c(=O)c21 [Compound 692] | > 4.30
83 | Cc1cc(=O)n(-c2ccc(OC(F)(F)F)cc2)cc1-c1ccc2cn(C)nc2c1 [Compound 250] | 3.70 to 4.30
84 | C[C@@H]1CCC(=O)N(c2ccccc2)C1 [Compound 84] | < 3.70
85 | O=C1CCCN1CCOc1cc(=O)n(-c2ccc(OC(F)(F)F)cc2)cc1-c1ccc(F)cc1 [Compound 97] | < 3.70
86 | O=c1cc(OCc2ccccc2)c(-c2ccc(F)cc2)cn1-c1ccc(OC(F)(F)F)cc1 [Compound 91] | < 3.70
87 | NS(=O)(=O)c1ccc(-c2ccc(=O)n(-c3ccc(Cl)cc3)c2)cc1 [Compound 327] | < 3.70
